{"source": "patent US9393187B2", "about": "“Peptide compounds that inhibit neuronal exocytosis” (LUBRIZOL ADVANCED MATERIALS, INC., priority 2012, dated 2016)", "test_system": "human neuroblastoma cell line", "assay": "Release of noradrenaline induced by TPA/Ionomycin in a neuroblastoma cell line, quantified by ELISA", "type": "cell-based", "settings": "TPA/ION control = 100", "method": "Quantification of the Release of Noradrenaline Induced by TPA/Ionomycin in a Neuroblastoma Cell Line by ELISA\nThe induction of the release of noradrenaline with TPA (12-O-tetradecanoylphorbol-13-acetate)/lonomycin enables direct measurement of neuronal exocytosis. For the study of the inhibitory effect of the compounds of the invention on the release of noradrenaline, cells of a human neuroblastoma cell line were pre-incubated (1×10^6 cells/well) for 60 minutes with the compound of the invention (1 μM, 10 μM, 100 μM, 500 μM or 1 mM compounds), and afterwards the release of noradrenaline was induced. The release of the noradrenaline neurotransmitter was induced by an 8 minute pre-treatment with a solution of 12-O-tetradecanoylphorbol-13-acetate (TPA) 100 nM, which mobilized the intracellular vesicles which contained the neuro-transmitter; followed by a 5 minute incubation with TPA/Ionomycin (100 nM/10 μM), which induced the release of the neurotransmitter contained in these vesicles. […] For this, absorbance at 405 nm was measured in Thermo Scientific Multiskan Ascent equipment.\nThe blocking of the SNARE complex by the compounds of the invention lead to an inhibition of neuronal exocytosis and therefore, a decrease in the levels of released noradrenaline (Table 6)."}
{"substance": "Ac-NDIAQM-NH2 [Ac-SEQ ID NO:30-NH2]", "values": [{"measurement": "% RELEASED NORADRENALINE Average", "setting": "dose 1 μM", "value": 99.59, "unit": "%"}, {"measurement": "% RELEASED NORADRENALINE Average", "setting": "dose 10 μM", "value": 94.48, "unit": "%"}, {"measurement": "% RELEASED NORADRENALINE Average", "setting": "dose 100 μM", "value": 74.79, "unit": "%"}, {"measurement": "% RELEASED NORADRENALINE Average", "setting": "dose 500 μM", "value": 48.07, "unit": "%"}, {"measurement": "% RELEASED NORADRENALINE Average", "setting": "dose 1000 μM", "value": 41.05, "unit": "%"}]}
{"substance": "Ac-RDFDQW-NH2 [Ac-SEQ ID NO:31-NH2]", "values": [{"measurement": "% RELEASED NORADRENALINE Average", "setting": "dose 10 μM", "value": 83.33, "unit": "%"}, {"measurement": "% RELEASED NORADRENALINE Average", "setting": "dose 100 μM", "value": 69.07, "unit": "%"}, {"measurement": "% RELEASED NORADRENALINE Average", "setting": "dose 1000 μM", "value": 31.72, "unit": "%"}]}
